“Also recorded” adds a separate entry of the source.
Assays:
WPMY-1 cells = assay: Autophagy activation by LC3 lipidation in WPMY-1 cells; type: cell-based, human; details: with lysosomal inhibitors
Excerpt: To knock out PARP-1 in WPMY-1 cells, single-guide RNA sequences targeting PARP-1 exon2 were purchased from Synthego and transduced into WPMY-1 cells with recombinant Streptococcus pyogenes Cas9 protein (Truecut Cas9 Protein v2, Thermo), using the Neon Transfection System 1 (Invitrogen) following the manufacturer's protocol and single clones were expanded and screened by protein immunoblotting. To perform AP1-A binding site editing in the SQSTM promoter in WPMY-1 cells, single-guide RNA sequences targeting the human AP1-A binding site (Synthego) was transduced into cells with a Cas9 protein and a single-stranded donor oligonucleotide (ssODN, IDT) using Neon Electroporation System. Single clones were expanded and screened for AP1-A editing by Sanger sequencing. A point mutation to disrupt the API enhancer element in the p62 promoter was introduced by Site Directed Mutagenesis (Stratagene). Knockdown of MCT1, MCT4, FOS, PARP1, PARP2, CD38, ATG5, and SIRT1-7 genes in WPMY-1 cells were achieved by siRNA transfection using Lipofectamine RNAiMAX Transfection Reagent (Invitrogen). […]
Cells for protein analysis were lysed in RIPA buffer (20 mM Tris-HCl, […], 2 mM EDTA, 1% Triton-X, 10% glycerol, 0.1% SDS, and 0.5% sodium deoxycholate) with phosphatase and protease inhibitors. […] Protein concentration in lysates was determined by using Protein Assay Kit (Bio-Rad). […]

PC3^GFP cells = assay: Survival of GFP-labeled PC3 cells alone or co-cultured with WPMY-1 cells; type: cell-based, human; details: Olaparib 5 μM, 10 days, basal and ADT
Protocol: Co-culture assays were performed as described previously (Valencia et al., 2014). Briefly, stromal cells were seeded in TC-treated 6-well plates and allowed to attach for 6 hours before PCa cells were seeded on top of Milicell Cell Culture Inserts (Millipore). Inserts were then placed in the pre-seeded 6-well plate. For co-culture experiments of PC3-GFP label with WPMY-1 cells, 500 PC3 and 1000 WPMY-1 were seeded in a 96 well plate in DMEN containing 10% FBS (basal conditions) or 10% charcoal stripped FBS (ADT conditions) and vehicle (DMSO) or Olaparib 5 μM for 10 days. Media and treatments were refresh every 48 hours. Pictures were taken using EVOS M5000 Imaging System and GFP positive were measured using Fiji (Schindelin et al., 2012).

What does the source list for `O=C(c1cc(Cc2n[nH]c(=O)c3ccccc23)ccc1F)N1CCN(C(=O)C2CC2)CC1` [Olaparib]?
autophagy activation (LC3 lipidation) (WPMY-1 cells): induced autophagy activation; also recorded: induces autophagy; sensitivity of PC3^GFP cells to Olaparib, co-culture vs monoculture (PC3^GFP cells): more resistant to Olaparib

From patent US20250073234A1, “COMBINATION THERAPIES INCLUDING PARP1 INHIBITORS” (Cornell University, priority 2022, published 2025)
